Assay results: patent US20200405697A1, “Antitumor Agent” (Taiho Pharmaceutical Co., Ltd, priority 2017, published 2020)

Molecular target: T1, human RNR (histidine tagged human M1 and human M2 proteins) (Homo sapiens, UniProt P23921)
T1 construct: made in house; host or cells: Escherichia coli
T1 sequence (P23921 1-792): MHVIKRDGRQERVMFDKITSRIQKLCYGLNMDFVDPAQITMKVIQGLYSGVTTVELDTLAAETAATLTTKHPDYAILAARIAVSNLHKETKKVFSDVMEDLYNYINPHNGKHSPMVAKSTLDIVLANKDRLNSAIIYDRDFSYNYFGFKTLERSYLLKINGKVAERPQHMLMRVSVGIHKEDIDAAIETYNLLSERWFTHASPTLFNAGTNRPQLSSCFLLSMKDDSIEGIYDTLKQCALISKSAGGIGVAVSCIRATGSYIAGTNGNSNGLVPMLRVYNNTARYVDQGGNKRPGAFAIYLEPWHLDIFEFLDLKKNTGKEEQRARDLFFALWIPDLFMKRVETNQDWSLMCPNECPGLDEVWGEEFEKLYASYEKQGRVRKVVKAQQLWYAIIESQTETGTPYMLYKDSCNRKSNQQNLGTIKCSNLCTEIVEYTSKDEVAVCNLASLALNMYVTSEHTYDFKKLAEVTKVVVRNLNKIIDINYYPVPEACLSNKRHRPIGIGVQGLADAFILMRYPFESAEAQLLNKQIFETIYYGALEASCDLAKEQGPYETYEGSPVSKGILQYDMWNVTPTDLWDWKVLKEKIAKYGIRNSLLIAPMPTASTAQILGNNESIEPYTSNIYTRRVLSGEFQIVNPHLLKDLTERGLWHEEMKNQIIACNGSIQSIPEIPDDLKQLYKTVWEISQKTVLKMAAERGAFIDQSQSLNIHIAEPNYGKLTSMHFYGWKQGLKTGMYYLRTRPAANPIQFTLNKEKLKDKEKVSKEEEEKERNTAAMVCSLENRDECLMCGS
Assay: Human RNR inhibition effect (dCDP formation from CDP)
Type: biochemical
Details: 10 μM CDP, 37° C. for 30 minutes, read-out: RNR inhibitory activity IC50
How it was run: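 His-tagged human M1 (isoform 1) and N-terminal 59-aa-truncated M2 (isoform 2), E. coli-expressed, Ni-purified, preincubated 20 min with compound (1% DMSO). Reaction with 10 μM CDP, 2 mM ATP, 0.24 mM NADPH, 6 mM DTT, 4 mM Mg acetate, 100 mM KCl, 50 mM HEPES pH 7.2, 30 min at 37° C. dCDP formed quantified by reverse-phase HPLC after heat stop.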

Q: Which IC50 does the source give for `Cc1ccc(F)c([C@@H](C)[C@H](NS(=O)(=O)c2ccc(Br)cc2C(N)=O)c2n[nH]c(=S)o2)c1C` [Example 332, 5-bromo-2-(N-((1S,2R)-2-(6-fluoro-2,3-dimethylphenyl)-1-(5-thioxo-4,5-dihydro-1,3,4-oxadiazol-2-yl)propyl)sulfamoyl)benzamide] here?
A: 130 nM

Q: How did the IC50 turn out when `CC(=O)OC1(C)CCOc2c(S(=O)(=O)N[C@H](c3n[nH]c(=O)o3)[C@H](C)c3c(F)ccc(Cl)c3C)ccc(Cl)c21` (stereo partly drawn) [Example 100, 5-chloro-8-(N-((1S,2R)-2-(3-chloro-6-fluoro-2-methylphenyl)-1-(5-oxo-4,5-dihydro-1,3,4-oxadiazol-2-yl)propyl)sulfamoyl)-4-methylchroman-4-yl acetate] was run?
A: 300 nM

Q: With `Cc1ccc(F)c([C@@H](C)[C@H](NS(=O)(=O)c2ccc(Cl)c3c2OCCC3N)c2n[nH]c(=O)o2)c1C` (stereo partly drawn) [Example 278, 4-amino-5-chloro-N-((1S,2R)-2-(6-fluoro-2,3-dimethylphenyl)-1-(5-oxo-4,5-dihydro-1,3,4-oxadiazol-2-yl)propyl)chroman-8-sulfonamide] as the compound, how does the IC50 read?
A: 130 nM

Q: For `Cc1ccc(F)c([C@@H](C)[C@H](NS(=O)(=O)c2ccc(Cl)c3c2OCCC3=O)c2n[nH]c(=O)o2)c1C` [Example 88, 5-chloro-N-((1S,2R)-2-(6-fluoro-2,3-dimethylphenyl)-1-(5-oxo-4,5-dihydro-1,3,4-oxadiazol-2-yl)propyl)-4-oxochroman-8-sulfonamide], which IC50 is on record?
A: 150 nM

Q: How did the IC50 turn out when `[2H]C([2H])([2H])[C@H](c1c(F)ccc(C)c1C)[C@H](NS(=O)(=O)c1ccc(Cl)cc1C(N)=O)c1n[nH]c(=O)o1` [Example 43, 5-chloro-2-[[(1S,2R)-3,3,3-trideuterio-2-(6-fluoro-2,3-dimethylphenyl)-1-(2-oxo-3H-1,3,4-oxadiazol-5-yl)propyl]sulfamoyl]benzamide] was run?
A: 80 nM

Q: `Cc1ccc(F)c([C@@H](C)[C@H](NS(=O)(=O)c2ccc(Cl)cc2C(=O)O)c2n[nH]c(=O)o2)c1C` [Example 210, 5-chloro-2-(N-((1S,2R)-2-(6-fluoro-2,3-dimethylphenyl)-1-(5-oxo-4,5-dihydro-1,3,4-oxadiazol-2-yl)propyl)sulfamoyl)benzoic acid] was tested. Which IC50 did it give?
A: 180 nM

Q: How did the IC50 turn out when `CC(O)c1c(Cl)ccc(S(=O)(=O)N[C@H](c2n[nH]c(=O)o2)[C@H](C)c2cccc3c2CCC3)c1Cl` (stereo partly drawn) [Example 201, 2,4-dichloro-N-((1S,2R)-2-(2,3-dihydro-1H-inden-4-yl)-1-(5-oxo-4,5-dihydro-1,3,4-oxadiazol-2-yl)propyl)-3-(1-hydroxyethyl)benzenesulfonamide] was run?
A: 170 nM

Q: `Cc1cccc([C@@H](C)[C@H](NS(=O)(=O)c2ccc(Br)cc2C(N)=O)c2n[nH]c(=O)o2)c1C` [Example 4, 5-bromo-2-(N-((1S,2R)-2-(2,3-dimethylphenyl)-1-(5-oxo-4,5-dihydro-1,3,4-oxadiazol-2-yl)propyl)sulfamoyl)benzamide] was tested. Which IC50 did it give?
A: 380 nM

Q: How did the IC50 turn out when `Cc1c(Cl)ccc(F)c1[C@@H](C)[C@H](NS(=O)(=O)c1ccc(F)c2c1OCCC2(C)O)c1n[nH]c(=O)o1` (single isomer, unassigned) [Example 229B] was run?
A: 110 nM

Q: For `Cc1ccc(F)c([C@@H](C)[C@H](NS(=O)(=O)c2ccc(Cl)c3c2OCC(=O)N3CC(F)F)c2n[nH]c(=O)o2)c1C` [Example 101, 5-chloro-4-(2,2-difluoroethyl)-N-((1S,2R)-2-(6-fluoro-2,3-dimethylphenyl)-1-(5-oxo-4,5-dihydro-1,3,4-oxadiazol-2-yl)propyl)-3-oxo-3,4-dihydro-2H-benzo[b][1,4]oxazine-8-sulfonamide], which IC50 is on record?
A: 130 nM

Q: For `COc1cc(Cl)ccc1S(=O)(=O)N[C@H](c1n[nH]c(=O)o1)[C@H](C)c1c(F)ccc(-c2ccc(Cl)nc2)c1C` [Example 313, 4-chloro-N-((1S,2R)-2-(3-(6-chloropyridin-3-yl)-6-fluoro-2-methylphenyl)-1-(5-oxo-4,5-dihydro-1,3,4-oxadiazol-2-yl)propyl)-2-methoxybenzenesulfonamide], which IC50 is on record?
A: 340 nM

Q: Which IC50 does the source give for `CCc1cccc([C@@H](C)[C@H](NS(=O)(=O)c2ccc(Cl)cc2OC)c2n[nH]c(=O)o2)c1C` [Example 86, 4-chloro-N-((1S,2R)-2-(3-ethyl-2-methylphenyl)-1-(5-oxo-4,5-dihydro-1,3,4-oxadiazol-2-yl)propyl)-2-methoxybenzenesulfonamide] here?
A: 400 nM

Q: How did the IC50 turn out when `Cc1ccc(F)c([C@@H](C)[C@@H](c2n[nH]c(=O)o2)N(C)S(=O)(=O)c2ccc(Cl)cc2C(N)=O)c1C` [Example 337, 5-chloro-2-(N-((1S,2R)-2-(6-fluoro-2,3-dimethylphenyl)-1-(5-oxo-4,5-dihydro-1,3,4 oxadiazol-2-yl)propyl)-N-methylsulfamoyl)benzamide] was run?
A: 80 nM

Q: `Cc1ccc(F)c([C@@H](C)[C@H](NS(=O)(=O)c2ccc(Br)c(C#N)c2)c2n[nH]c(=O)o2)c1C` [Example 343, 4-bromo-3-cyano-N-((1S,2R)-(6-fluoro-2,3-dimethylphenyl)-1-(5-oxo-4,5-dihydro-1,3,4-oxadiazol-2-yl)propyl)benzenesulfonamide] was tested. Which IC50 did it give?
A: 640 nM

Q: With `CC(O)c1nc(S(=O)(=O)N[C@H](c2n[nH]c(=O)o2)[C@H](C)c2cccc3c2CCC3)ccc1Cl` (stereo partly drawn) [Example 202, 5-chloro-N-((1S,2R)-2-(2,3-dihydro-1H-inden-4-yl)-1-(5-oxo-4,5-dihydro-1,3,4-oxadiazol-2-yl)propyl)-6-(1-hydroxyethyl)pyridine-2-sulfonamide] as the compound, how does the IC50 read?
A: 400 nM

Q: `Cc1c(C2CC2)ccc(F)c1[C@@H](C)[C@H](NS(=O)(=O)c1ccc(Cl)cc1C(N)=O)c1n[nH]c(=O)o1` [Example 26, 5-chloro-2-(N-((1S,2R)-2-(3-cyclopropyl-6-fluoro-2-methylphenyl)-1-(5-oxo-4,5-dihydro-1,3,4-oxadiazol-2-yl)propyl)sulfamoyl)benzamide] was tested. Which IC50 did it give?
A: 160 nM

Q: Which IC50 does the source give for `COc1cc(Cl)ccc1S(=O)(=O)N[C@H](c1n[nH]c(=O)o1)[C@H](C)c1c(F)ccc2ccccc12` [Example 76, 4-chloro-N-((1S,2R)-2-(2-fluoronaphthalen-1-yl)-1-(5-oxo-4,5-dihydro-1,3,4-oxadiazol-2-yl)propyl)-2-methoxybenzenesulfonamide] here?
A: 200 nM

Q: `COc1cc(Cl)ccc1S(=O)(=O)N[C@H](c1n[nH]c(=S)[nH]1)[C@H](C)c1c(F)ccc(C)c1C` [Example 350] was tested. Which IC50 did it give?
A: 460 nM

Q: `Cc1ccc(F)c([C@@H](C)[C@H](NS(=O)(=O)c2ccccc2C(N)=O)c2n[nH]c(=O)o2)c1C` [Example 20, 2-(N-((1S,2R)-2-(6-fluoro-2,3-dimethylphenyl)-1-(5-oxo-4,5-dihydro-1,3,4-oxadiazol-2-yl)propyl)sulfamoyl)benzamide] was tested. Which IC50 did it give?
A: 260 nM

Q: With `Cc1ccc(F)c([C@@H](C)[C@H](NS(=O)(=O)c2ccc(F)c3c2OCCC3O)c2n[nH]c(=O)o2)c1C` (single isomer, unassigned) [Example 230A] as the compound, how does the IC50 read?
A: 120 nM

Q: Which IC50 does the source give for `COc1c(S(=O)(=O)N[C@H](c2n[nH]c(=O)o2)[C@H](C)c2c(F)ccc(C)c2C)ccc(Cl)c1C(C)=O` [Example 294, 3-acetyl-4-chloro-N-((1S,2R)-2-(6-fluoro-2,3-dimethylphenyl)-1-(5-oxo-4,5-dihydro-1,3,4-oxadiazol-2-yl)propyl)-2-methoxybenzenesulfonamide] here?
A: 110 nM

Q: `COc1cc(Cl)ccc1S(=O)(=O)N[C@H](c1n[nH]c(=O)o1)[C@H](C)c1c(F)ccc(-c2cnn(C(F)F)c2)c1C` [Example 304, 4-chloro-N-((1S,2R)-2-(3-(1-(difluoromethyl)-1H-pyrazol-4-yl)-6-fluoro-2-methylphenyl)-1-(5-oxo-4,5-dihydro-1,3,4-oxadiazol-2-yl)propyl)-2-methoxybenzenesulfonamide] was tested. Which IC50 did it give?
A: 160 nM

Q: For `Cc1ccc(F)c([C@@H](C)[C@H](NS(=O)(=O)c2ccc(Cl)nc2C(N)=O)c2n[nH]c(=O)o2)c1C` [Example 19, 6-Chloro-3-(N-((1S,2R)-2-(6-fluoro-2,3-dimethylphenyl)-1-(5-oxo-4,5-dihydro-1,3,4-oxadiazol-2-yl)propyl)sulfamoyl)picolinamide], which IC50 is on record?
A: 190 nM

Q: `Cc1ccc(F)c([C@@H](C)[C@H](NS(=O)(=O)c2ccc(Cl)cc2C(=O)NOCc2ccccc2)c2n[nH]c(=O)o2)c1C` [Example 282, N-(benzyloxy)-5-chloro-2-(N-((1S,2R)-2-(6-fluoro-2,3-dimethylphenyl)-1-(5-oxo-4,5-dihydro-1,3-oxadiazol-2-yl)propyl)sulfamoyl)benzamide] was tested. Which IC50 did it give?
A: 910 nM

Q: For `CC(=O)OC1(C)CCOc2c(S(=O)(=O)N[C@H](c3n[nH]c(=O)o3)[C@H](C)c3c(F)ccc(Br)c3C)ccc(Cl)c21` (stereo partly shown) [Example 167], which IC50 is on record?
A: 80 nM
